{
  "source": "patent EP0319986B1",
  "about": "“Anti-plasmin depressant” (NIPPON SHINYAKU COMPANY, LIMITED, priority 1987, dated 1989)",
  "note": "Where a name gives a salt, the structure may show the parent alone.",
  "data": [
    {"test_system": "not listed separately", "assay": "Test on acute toxicity", "conditions": "mouse, in vivo, ip", "protocol": "(§1) Four (4) ddY strain male mice of 6 week age were used for each group of the test sample.\n(§2) In intravenous administration, each sample was dissolved in 0.9% physiological saline and the solution was administered through the tail vein. In intraperitoneal administration, each sample was suspended in 0.5% CMC-physiological saline and 0.1 ml of the suspension per […] of mouse body weight was intraperitoneally administered. In oral administration, each sample was suspended in 0.5% CMC-physiological saline and 0.2 ml of the suspension per […] administered.\n(§3) Observation was made immediately after the administration. After observation for 1 week after the administration, the mice was sacrificed with chloroform and subjected to autopsy.", "units": {"LD50 at 168 h": "mg/kg"}, "values": [
      {"compound": "OC[C@H]1NC[C@H](O)[C@@H](O)[C@@H]1O", "note": "[Compound No. 1, Moranoline]", "LD50 at 168 h": 5000}
    ]},
    {"test_system": "not listed separately", "assay": "Test on acute toxicity", "conditions": "mouse, in vivo, iv", "protocol": "as §1, §2, §3", "units": {"LD50 at 168 h": "mg/kg"}, "values": [
      {"compound": "OC[C@H]1NC[C@H](O)[C@@H](O)[C@@H]1O", "note": "[Compound No. 1, Moranoline]", "LD50 at 168 h": 3240}
    ]},
    {"test_system": "not listed separately", "assay": "Test on acute toxicity", "conditions": "mouse, in vivo, po", "protocol": "as §1, §2, §3", "units": {"LD50 at 168 h": "mg/kg"}, "values": [
      {"compound": "OC[C@H]1NC[C@H](O)[C@@H](O)[C@@H]1O", "note": "[Compound No. 1, Moranoline]", "LD50 at 168 h": 7500}
    ]},
    {"test_system": "α2-plasmin inhibitor (α2-PI)", "assay": "α2-PI activity in culture medium of HepG2 cells (plasmin / S-2251 chromogenic substrate)", "format": "cell-based, human", "conditions": "200 µg/ml of compound, serum-free medium, 3 to 4 days, culture without test compound = 100%, n=3", "protocol": "It is known that human hepatic cancer-derived HepG2 cells synthesize and secrete α2-plasmin inhibitor (α2-PI). The HepG2 cells, 2 x 10^6, were inoculated on a plastic culture plate (diameter of 100 mm) made by Falcon Inc. and cultured in Eagle's minimum medium containing 10% bovine fetal serum.\nThree days after, cells adhered to the bottom of the plate were washed twice with Dulbecco's phosphate buffer followed by culturing in 8 ml of serum-free Eagle's medium (containing no Phenol Red) containing 200 µg/ml of a specimen of the compound of the present invention for further 3 to 4 days. […]\nTo 100 µl of the concentrated sample, 50 µl of 15 mCU plasmin solution was added and further 50 µl of 0.25 µmole S-2251 synthetic chromogenic substrate solution was added thereto followed by reacting at 37°C for 10 minutes. By adding 1 ml of 2% citrate solution, the reaction was stopped. p-Nitroanilide released from the S-2251 substrate was measured at O.D. of 405 nm.\nA sample in which decomposition of the S-2251 substrate was measured using the aforesaid Tris buffer instead of the concentrated sample was made a control showing 100% plasmin activity and the concentrated sample cultured without adding a test compound was made a control showing 100% α2-PI activity. […]", "units": {"α2-PI activity (%)": "%"}, "values": [
      {"compound": "N-Isoprenylmoranoline [Compound No. 9]", "α2-PI activity (%)": 55},
      {"compound": "Nojirimycin bisulfite [Compound No. 6]", "α2-PI activity (%)": 67}
    ]},
    {"test_system": "CPAE (calf pulmonary artery endothelia)", "assay": "Thrombolytic test in vitro: CPAE culture supernatant on fibrin plate, lysis circle", "format": "cell-based", "conditions": "5 µl of 0.2 mg/ml compound solution per well of CPAE cells, 72 hours; 5 µl supernatant on fibrin plate with plasminogen, 4 hours; 4 mm or more = thrombolytic ability induced", "protocol": "Thrombolytic activity-inducing ability in the established vascular endothelial cell culture system was examined using CPAE (calf pulmonary artery endothelia).\n[…] cells were purchased from Dainippon Pharmaceutical Co., Ltd., Department of Laboratory Products. CPAE cells were subcultured in 10% FCS-Eagle MEM medium charged in a culture flask of 25 cm^2. From the cell suspension fractionated upon subculture, 0.1 ml was transferred into a test tube with a sterilized pipette. Then, the cell suspension was diluted to 10 fold with 0.9 ml of Trypan Blue solution and a cell count was counted with a cell counter. After diluting with 10% FCS-Eagle MEM medium so as to have a cell count of 2 x 10^5 cells/ml, 100 µl each/well, namely, 2 x 10^4 cells/well, of the dilution was dispensed in a 96 well microtiter plate (manufactured by Corning) with a micropipette. The plate was incubated at 37°C in 5% CO2.\nThe compound used according to the present invention was dissolved in medium in 0.2 mg/ml; the compound that was insoluble in the medium was dissolved in less than 1% of DMSO and the resulting solution was aseptically filtered through a filter; 5 µl of the solution was added to the well with a sterilized micropipette 24 hours after onset of the incubation. After culturing at 37°C for 72 hours in 5% CO2, the collected culture supernatant was provided for measurement.\nThe measurement was performed as follows. Plasminogen, 5 µl, was charged in a well of fibrin plate (manufactured by Kitazato institute), which was allowed to stand until diffusion was completed. After diffusion, 5 µl of the supernatant was charged and then put in a carbon dioxide gas incubator of 37°C. Four hours after, evaluation was made by formation of a transparent lysis circle by fibrinolysis.\nIn the case of forming a circle of 4 mm or more due to fibrinolysis, it was judged that thrombolytic ability of CPAE cells was induced.\nAfter the fibrinolytic activity was checked over, the well was fixed with 2.5% of glutaraldehyde in a final concentration. Then, the solution was discarded and the system was washed with PBS. After washing, moisture was removed. After staining with 100 µl of 0.1% crystal violet and allowing stand for 2 to 3 minutes, the system was washed with running water. After an excess of the staining solution was washed out, moisture was removed and the dye bound to the cells was eluted by 100 µl of methanol. Using multiscanning (Titertech), measurements were performed at a wavelength of 580 nm in accordance with the ABS method and the matrix method to confirm that the cells were not injured.", "units": {"Diameter (mm) of the circle due to fibrinolysis": "mm"}, "values": [
      {"compound": "CCCCN1C[C@H](O)[C@@H](O)[C@H](O)[C@H]1CO", "note": "[Compound No. 2a, N-(n-Butyl)moranoline]", "Diameter (mm) of the circle due to fibrinolysis": 7.5},
      {"compound": "CCCCCCN1C[C@H](O)[C@@H](O)[C@H](O)[C@H]1CO", "note": "[Compound No. 8, N-Hexylmoranoline tosylate]", "Diameter (mm) of the circle due to fibrinolysis": 6.3},
      {"compound": "CCCCCCCCC(O)CN1C[C@H](O)[C@@H](O)[C@H](O)[C@H]1CO", "note": "(stereo partly shown) [Compound No. 10, N-(2-Hydroxydecyl)moranoline tosylate]", "Diameter (mm) of the circle due to fibrinolysis": 4.5},
      {"compound": "OC[C@@H]1[C@@H](O)[C@H](O)[C@@H](O)CN1CCCc1ccccc1", "note": "[Compound No. 12, N-(3-Phenylpropyl)moranoline tosylate]", "Diameter (mm) of the circle due to fibrinolysis": 5.9},
      {"compound": "OC[C@@H]1[C@@H](O)[C@H](O)[C@@H](O)CN1CC=Cc1ccccc1", "note": "[Compound No. 14, N-Cinnamylmoranoline hydrochloride]", "Diameter (mm) of the circle due to fibrinolysis": 5.9},
      {"compound": "OC[C@@H]1[C@@H](O)[C@H](O)[C@@H](O)CN1CCCCc1ccccc1", "note": "[Compound No. 15, N-4-Phenylbutylmoranoline tosylate]", "Diameter (mm) of the circle due to fibrinolysis": 6.3},
      {"compound": "OC[C@@H]1[C@@H](O)[C@H](O)[C@@H](O)CN1CCCOc1ccccc1", "note": "[Compound No. 17, N-(3-Phenoxypropyl)moranoline tosylate]", "Diameter (mm) of the circle due to fibrinolysis": 7.5},
      {"compound": "OC[C@@H]1[C@@H](O)[C@H](O)[C@@H](O)CN1CCCCCc1ccccc1", "note": "[Compound No. 18, N-5-(Phenylpentyl)moranoline tosylate]", "Diameter (mm) of the circle due to fibrinolysis": 6.8},
      {"compound": "OC[C@@H]1[C@@H](O)[C@H](O)[C@@H](O)CN1CCC1CCCC1", "note": "[Compound No. 19, N-(2-Cyclopentylethyl)moranoline tosylate]", "Diameter (mm) of the circle due to fibrinolysis": 5.8},
      {"compound": "COCCOc1cccc(C(C)=CCN2C[C@H](O)[C@@H](O)[C@H](O)[C@H]2CO)c1", "note": "[Compound No. 20, N-[3-(3-Methoxyethoxyphenyl)-2-butenyl]moranoline]", "Diameter (mm) of the circle due to fibrinolysis": 8.0},
      {"compound": "C[N+]1(C)C[C@H](O)[C@@H](O)[C@H](O)[C@H]1CO", "note": "[Compound No. 21, N,N-Dimethylmoranoline ammonium iodide]", "Diameter (mm) of the circle due to fibrinolysis": 5.6},
      {"compound": "CCN1C[C@H](O)[C@@H](O)[C@H](O)[C@H]1CO", "note": "[Compound No. 22, N-Ethylmoranoline]", "Diameter (mm) of the circle due to fibrinolysis": 6.5},
      {"compound": "OCC1C(O)C(O)C(O)CN1CC=Cc1ccccc1", "note": "(stereo not shown) [Compound No. 23, N-Cinnamylmoranoline]", "Diameter (mm) of the circle due to fibrinolysis": 8.4},
      {"compound": "CC(C)=CCC/C(C)=C/CN1C[C@H](O)[C@@H](O)[C@H](O)[C@H]1CO", "note": "[Compound No. 24, N-Geranylmoranoline tosylate]", "Diameter (mm) of the circle due to fibrinolysis": 7.6},
      {"compound": "OC[C@@H]1[C@@H](O)[C@H](O)[C@@H](O)CN1CC(O)COc1ccccc1", "note": "(stereo partly shown) [Compound No. 25, N-(2-Hydroxy-3-phenoxypropyl)moranoline tosylate]", "Diameter (mm) of the circle due to fibrinolysis": 4.1},
      {"compound": "CC(C)=CCCC(C)=CCCC(C)=CCN1CC(O)C(O)C(O)C1CO", "note": "(stereo not shown) [Compound No. 26, N-Farnesylmoranoline tosylate]", "Diameter (mm) of the circle due to fibrinolysis": 5.7},
      {"compound": "CNC(=O)CCCCCCCCCCN1C[C@H](O)[C@@H](O)[C@H](O)[C@H]1CO", "note": "[Compound No. 27, N-10-(N-Methylcarbamoyl)decylmoranoline]", "Diameter (mm) of the circle due to fibrinolysis": 8.5},
      {"compound": "OC[C@@H]1[C@@H](O)[C@H](O)[C@@H](O)CN1CCC=Cc1ccccc1", "note": "[Compound No. 28, N-(4-Phenyl-3-butenyl)moranoline tosylate]", "Diameter (mm) of the circle due to fibrinolysis": 8.3},
      {"compound": "CC(=Cc1ccccc1)CN1C[C@H](O)[C@@H](O)[C@H](O)[C@H]1CO", "note": "[Compound No. 29, N-(3-Phenyl-2-methyl-2-propenyl)moranoline]", "Diameter (mm) of the circle due to fibrinolysis": 7.1},
      {"compound": "OC[C@@H]1[C@@H](O)[C@H](O)[C@@H](O)CN1CCCOc1ccccc1Cl", "note": "[Compound No. 30, N-(3-o-Chlorophenoxypropyl)moranoline]", "Diameter (mm) of the circle due to fibrinolysis": 7.6},
      {"compound": "CC(=CCN1C[C@H](O)[C@@H](O)[C@H](O)[C@H]1CO)c1ccc(Br)cc1", "note": "[Compound No. 31, N-(γ-Methyl-4-bromocinnamyl)moranoline]", "Diameter (mm) of the circle due to fibrinolysis": 7.9},
      {"compound": "Cc1ccc(CCCCN2C[C@H](O)[C@@H](O)[C@H](O)[C@H]2CO)cc1F", "note": "[Compound No. 32, N-[4-(3-Fluoro-4-methylphenyl)butyl]moranoline]", "Diameter (mm) of the circle due to fibrinolysis": 7.5},
      {"compound": "CCOc1ccc(C=CCN2CC(O)C(O)C(O)C2CO)cc1", "note": "(stereo not shown) [Compound No. 33, N-(p-Ethoxycinnamyl)moranoline]", "Diameter (mm) of the circle due to fibrinolysis": 7.8},
      {"compound": "CC(C)Oc1ccc(C=CCN2CC(O)C(O)C(O)C2CO)cc1", "note": "(stereo not shown) [Compound No. 34, N-(p-Isopropoxycinnamyl)moranoline]", "Diameter (mm) of the circle due to fibrinolysis": 7.6},
      {"compound": "CC(=CCN1C[C@H](O)[C@@H](O)[C@H](O)[C@H]1CO)c1cccc(C)c1", "note": "[Compound No. 35, N-(γ-Methyl-m-methylcimnnamyl)moranoline]", "Diameter (mm) of the circle due to fibrinolysis": 7.8},
      {"compound": "COc1cccc(C(C)=CCCN2C[C@H](O)[C@@H](O)[C@H](O)[C@H]2CO)c1", "note": "[Compound No. 36, N-(4-m-Methoxyphenyl-3-pentenyl)moranoline]", "Diameter (mm) of the circle due to fibrinolysis": 7.6},
      {"compound": "CCOC(=O)c1ccc(OCCN2C[C@H](O)[C@@H](O)[C@H](O)[C@H]2CO)cc1", "note": "[Compound No. 37, N-(p-Ethoxycarbonylphenoxyethyl)moranoline]", "Diameter (mm) of the circle due to fibrinolysis": 6.9},
      {"compound": "O[C@H]1[C@H](O)[C@@H](O)CN2CC[C@H](O)[C@H]12", "note": "[Compound No. 38, Castanospermine]", "Diameter (mm) of the circle due to fibrinolysis": 6.9},
      {"compound": "N-Isoprenylmoranoline [Compound No. 9]", "Diameter (mm) of the circle due to fibrinolysis": 8.2}
    ]}
  ]
}
